How the values were obtained:
CD4+ and CD8+ T cells [1] = experiment: Caspase, CD27/CCR7 phenotype and intracellular cytokines of thawed engineered T cells; format: cell-based, human
Description: CD4+ and CD8+ T cells were isolated by immunoaffinity-based enrichment from leukapheresis samples from human donor subjects. At day 1, isolated CD4+ and CD8+ T cells were mixed 1:1 and stimulated with an anti-CD3/anti-CD28 oligomeric stimulatory reagent generated as described in Example 1 in serum-free media supplemented with recombinant IL-2 (100 IU/mL), recombinant IL-7 (600 IU/mL), and recombinant IL-15 (100 IU/mL) with or without 1 μM of 2-(3-hydroxyphenyl)-9-(2-isopropylphenyl)-8-oxo-8,9-dihydro-7H-purine-6-carboxamide (Compound 63). The T cells cultured with our without Compound 63 were incubated overnight (approximately 24 hr) at 37° C., and were then transduced in serum-free culture media with our without Compound 63 ([…]) with a lentiviral vector encoding an anti-CD19 CAR. The CAR contained an scFv antigen-binding domain specific for CD19 (derived from FMC63), a CD28 transmembrane region, a 4-1BB costimulatory signaling region, and a CD3-zeta derived intracellular signaling domain. Following transduction, the cells were incubated in serum free media without recombinant cytokines (basal media) and with or without Compound 63 (1 mM) and allowed to incubate at about 37.0° C. in an incubator for up to 96 hours after initiation of the stimulation with the anti-CD3/anti-CD28 oligomeric stimulatory reagent (until day 5 of the process). […] Following incubation CD4+ and CD8+ T cells from each donor were harvested, formulated, and cryofrozen.
Thawed cells generated by the process described were assessed for a marker of apoptosis (e.g., percentage of caspase positive CAR-T cells), phenotypic profile, and ability to produce intracellular cytokines following stimulation with PMA/Ionomycin and a Golgi Inhibitor. […] Thawed cells also were stained for surface expression of CD27 and CCR7 by flow cytometry.

CD4+ and CD8+ T cells [2] = experiment: Viability and live cell count of engineered T cell composition; format: cell-based, human; settings: generated composition; produced with versus without compound
Description: (§1) CD4+ and CD8+ T cells were isolated by immunoaffinity-based enrichment from leukapheresis samples from human donor subjects. […] The T cells cultured with our without Compound 63 were incubated overnight (approximately 24 hr) at 37° C., and were then transduced in serum-free culture media with our without Compound 63 ([…]) with a lentiviral vector encoding an anti-CD19 CAR. […] Following transduction, the cells were incubated in serum free media without recombinant cytokines (basal media) and with or without Compound 63 (1 mM) and allowed to incubate at about 37.0° C. in an incubator for up to 96 hours after initiation of the stimulation with the anti-CD3/anti-CD28 oligomeric stimulatory reagent (until day 5 of the process). […] The cryofrozen engineered CD4+ and CD8+ T cells were thawed, and T cells were assessed for intracellular S6 phosphorylation, a ribosomal protein and marker of mTOR inhibition, and co-stained for surface expression of CD4 or CD8 and for CCR7 and CD45RA as markers of memory subsets. pS6 expression in live CD8+ T cells by memory subsets was shown by the expression of CCR7 and CD45RA as shown in FIG. 6A. As shown, incubation with Compound 63 decreased the mean fluorescence intensity of stimulated memory T cell subsets, […], indicating an inhibition of mTOR, while having no significant effect on the percentage or total number of viable cells over time.

anti-CD19 CAR T cells = experiment: Long-term (12 days) stimulation with anti-idiotype antibody beads: expansion and survival; format: cell-based, human; settings: anti-ID antibody beads
Description: CD4+ and CD8+ T cells were isolated by immunoaffinity-based enrichment from leukapheresis samples from human donor subjects. At day 1, isolated CD4+ and CD8+ T cells were mixed 1:1 and stimulated with an anti-CD3/anti-CD28 oligomeric stimulatory reagent generated as described in Example 1 in serum-free media supplemented with recombinant IL-2 (100 IU/mL), recombinant IL-7 (600 IU/mL), and recombinant IL-15 (100 IU/mL) with or without 1 μM of 2-(3-hydroxyphenyl)-9-(2-isopropylphenyl)-8-oxo-8,9-dihydro-7H-purine-6-carboxamide (Compound 63). The T cells cultured with our without Compound 63 were incubated overnight (approximately 24 hr) at 37° C., and were then transduced in serum-free culture media with our without Compound 63 ([…]) with a lentiviral vector encoding an anti-CD19 CAR. The CAR contained an scFv antigen-binding domain specific for CD19 (derived from FMC63), a CD28 transmembrane region, a 4-1BB costimulatory signaling region, and a CD3-zeta derived intracellular signaling domain. […]
To further assess the functional activity of the cells, the generated T cell compositions were stimulated long-term over 12 days with beads conjugated with an anti-idiotype (ID) antibody against the anti-CD19 CAR, and expansion and survival of the cells were monitored (FIG. 7F, left panel) and total expansion metric calculated by area under the curve (FIG. 7F, right panel).

mTOR = experiment: Intracellular S6 phosphorylation (marker of mTOR inhibition) in engineered T cells; format: cell-based, human; settings: live CD8+ T cells; 1 μM at stimulation (1 mM printed for later steps)
Description: as §1

[3] = target: Strep-Tactin® (mutein streptavidin, SEQ ID NO: 4) (Streptomyces avidinii, UniProt P22629, E68V/S69T/V71R); settings: general statement of the description, no experiment of the applicant; read-out: binding affinity KD for binding to Strep-Tactin®; cited from earlier work
Chain of Strep-Tactin® (mutein streptavidin, SEQ ID NO: 4) (P22629 other isoform, or with tags, fused parts or gaps E68V/S69T/V71R): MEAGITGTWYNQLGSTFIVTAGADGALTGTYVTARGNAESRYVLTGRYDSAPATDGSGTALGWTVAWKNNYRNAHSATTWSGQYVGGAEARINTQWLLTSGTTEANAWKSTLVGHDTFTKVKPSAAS

Molecule | phenotypic subset profile by CD27 and/or CCR7 expression (CD4+ and CD8+ T cells [1]; CD8+ and CD4+ T cells) | level of intracellular cytokines IL2, IFNg, or TNF (CD4+ and CD8+ T cells [1]; after PMA/Ionomycin and Golgi inhibitor, CD8+ and CD4+ T cells) | intracellular caspase expression (CD4+ and CD8+ T cells [1]; thawed CAR-T cells, with versus without compound) | percent viable cells (CD4+ and CD8+ T cells [2]) | total live cells (CD4+ and CD8+ T cells [2]) | function (expansion and survival) after long-term CAR-specific stimulation (anti-CD19 CAR T cells) | pS6 mean fluorescence intensity in memory T cell subsets (Temra, Tem, Tcm) (mTOR) | Kd [3] [nM]
CC(C)c1ccccc1-n1c(=O)[nH]c2c(C(N)=O)nc(-c3cccc(O)c3)nc21 [Compound 63, 2-(3-hydroxyphenyl)-9-(2-isopropylphenyl)-8-oxo-8,9-dihydro-7H-purine-6-carboxamide] | did not substantially alter | substantially improved | less | did not impact | did not impact | improved function | decreased | 
WSHPQFEK [Strep-Tag® II] |  |  |  |  |  |  |  | ~1000

— US12522660B2, “Methods for selection and stimulation of cells and apparatus for same” (C3S2 GMBH, priority 2018, dated 2026)
